According to US20250127699A1, “One Pot Process for Preparing 'Grit-Free' Solid Cleansing Compositions” (GALAXY SURFACTANTS LTD., priority 2023, published 2025):

How the values were obtained:
Assay in all cases: Minimum inhibitory concentration
Type in all cases: cell-based
Conditions in all cases: at pH 5.5, 1% solution
[1] = test system: Staphylococcus hominis MTCC 8980
Text: (§1) These gentle antimicrobials are well-established in personal care industry for their skin and scalp care benefits that stem from their broad range of antimicrobial activity. These are mostly deployed in a variety of ‘liquid’ wash formulations (body wash/hair wash) and sometimes in ‘leave-on’ creams and lotions (anti-acne). […] These two lipidated glycines, alone as well as when combined together, show remarkable activity against Candida albicans and Candida glabrata yeast (vaginal candidiasis, the yeast infection) and Gardnerella vaginalis (a Gram-variable bacterium that is a causative microbe for bacterial vaginosis). […] These two N-acyl glycines, akin to skin fatty acids, are devoid of any structural feature, like halogen atom or a heterocycle, that can be a potential hazard to the environment and living systems. […] The N-acyl glycine alone or in combination can be used up to 4.0% by weight of the total composition. The traditional environmentally toxic chlorinated antimicrobials for cleansing hygiene bars such as Chlorhexidne, Triclosan, Chloroxylenol, Climbazole, Triclocarban (banned in 2017) or other traditional anti-dandruff (antifungal) agents like Climbazole or Octopirox (monoethanol amine salt of piroctone), Zinc pyrithion (now banned in EU) etc. generate unsalvageable waste at every step of the multistep syntheses. In contrast to the facts (hazardous synthesis and toxicity) of traditional antimicrobials for solid cleansers, the lipidated glycines, that are part of solid compositions of the present invention, are manufactured by green chemistry without generating any unsalvageable/non-disposable waste as taught by IN patent 362888. Also, it is to be noted that N-acyl glycines are biodegradable and environmentally benign. These two lipidated glycines (Formula I and Formula II) are organic acids and by adding them in the second stage of processing when the mass of the first stage is being kneaded with limited amount of water in a sigma blender, helps to achieve the desired pH of the final solid cleanser. pH of the final solid cleanser can be brought down from 6.0 to 4.0 by incorporating these acyl glycines at an amount of about 0.5% to 4.0% of the total composition. The two N-acyl glycines can be used individually or in a combination. Examples 1 to 9 deploy either N-capryloyl glycine or N-undecylenoyl glycine, however, Example 10 to 13 use both of N-capryloyl glycine and N-undecylenoyl glycine. Higher % of capryloyl glycine (around 3.0% of the total composition) results in lower pH that is intended for anti-acne or feminine intimate hygiene wash as exemplified in Example 3. Minimum inhibitory concentrations of capryloyl glycine (CG) and undecylenoyl glycine (UG) and their combination (CG-UG) in 1:1 molar ratio using 1% solution at pH 5.5 are given in Table 1. […] The MIC numbers (less than 0.1%) for the N-acyl glycines against Gardnerella bacterium are extremely good. […] The preferred antimicrobials for the solid cleansers of the present invention are the combination of N-capryloyl glycine and N-undecylenoyl glycine in the molar ratio of 1:1.

[2] = test system: Malassezia restricta ATCC MYA 4611
Text: as §1

[3] = test system: Escherichia coli ATCC 8739
Text: as §1

[4] = test system: Staphylococcus epidermidis NCIM 2493
Text: as §1

[5] = test system: Micrococcus luteus NCIM 2103
Text: as §1

[6] = test system: Corynebacterium xerosis ATCC 373
Text: as §1

[7] = test system: Burkholderia cepacia ATCC 25416
Text: as §1

[8] = test system: Aspergillus niger ATCC 16404
Text: as §1

[9] = test system: Pseudomonas aeruginosa ATCC 15442
Text: as §1

[10] = test system: Staphylococcus aureus ATCC 6538
Text: as §1

[11] = test system: Gardnerella vaginalis ATCC 14018
Text: as §1

[12] = test system: Candida glabrata ATCC 66032
Text: as §1

[13] = test system: Candida albicans ATCC 10231
Text: as §1

[14] = test system: Malassezia furfur ATCC 14521
Text: as §1

[15] = test system: Propionibacterium acnes MTCC 1951
Text: as §1

SMILES	Minimum Inhibitory Concentration [1]	Minimum Inhibitory Concentration [2]	Minimum Inhibitory Concentration [3]	Minimum Inhibitory Concentration [4]	Minimum Inhibitory Concentration [5]	Minimum Inhibitory Concentration [6]	Minimum Inhibitory Concentration [7]	Minimum Inhibitory Concentration [8]	Minimum Inhibitory Concentration [9]	Minimum Inhibitory Concentration [10]	Minimum Inhibitory Concentration [11]	Minimum Inhibitory Concentration [12]	Minimum Inhibitory Concentration [13]	Minimum Inhibitory Concentration [14]	Minimum Inhibitory Concentration [15]
CCCCCCCC(=O)NCC(=O)O [CG, N-capryloyl glycine]	0.3%	0.4%	0.7%	1%	1%	1. %	1%	1%	1%	1%	0.09%	1%	0.6%	0.5%	1%
C=CCCCCCCCCC(=O)NCC(=O)O [UG, N-undecylenoyl glycine]	0.2%	0.4%	0.9%	0.4%	0.5%	0.7%	1%	1%	1%	0.6%	0.06%	0.9%	1%	0.5%	1%
